Measured values taken from PubChem BioAssay (NCI).
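1) Cells in 96-well plates. 2) Compound, 48 h, 5 concentrations. 3) Linear interpolation between surrounding doses. 4) Unreached endpoint = highest concentration. The concentration for full growth arrest is given as TGI.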

Experiments:
Test in all cases: NCI tumour cell line growth inhibition, 48 h
786-0 renal = system: 786-0 renal
A498 renal = system: A498 renal
A549 NSCLC = system: A549 NSCLC
ACHN renal = system: ACHN renal
BT-549 breast = system: BT-549 breast
CAKI-1 renal = system: CAKI-1 renal
CCRF-CEM leukemia = system: CCRF-CEM leukemia
COLO 205 colon = system: COLO 205 colon
DLD-1 colon = system: DLD-1 colon
DMS 114 small cell lung = system: DMS 114 small cell lung
DMS 273 small cell lung = system: DMS 273 small cell lung
DU-145 prostate = system: DU-145 prostate
EKVX NSCLC = system: EKVX NSCLC
HCC-2998 colon = system: HCC-2998 colon
HCT-116 colon = system: HCT-116 colon
HCT-15 colon = system: HCT-15 colon
HL-60(TB) leukemia = system: HL-60(TB) leukemia
HOP-18 NSCLC = system: HOP-18 NSCLC
HOP-92 NSCLC = system: HOP-92 NSCLC
HS 578T breast = system: HS 578T breast
HT29 colon = system: HT29 colon
IGROV1 ovarian = system: IGROV1 ovarian
K-562 leukemia = system: K-562 leukemia
KM12 colon = system: KM12 colon
KM20L2 colon = system: KM20L2 colon
LOX IMVI melanoma = system: LOX IMVI melanoma
M14 melanoma = system: M14 melanoma
M19-MEL melanoma = system: M19-MEL melanoma
MALME-3M melanoma = system: MALME-3M melanoma
MCF7 breast = system: MCF7 breast
MDA-MB-231 breast = system: MDA-MB-231 breast
MDA-MB-435 = system: MDA-MB-435
MDA-N = system: MDA-N
MOLT-4 leukemia = system: MOLT-4 leukemia
NCI-H226 lung = system: NCI-H226 lung
NCI-H23 lung = system: NCI-H23 lung
NCI-H460 lung = system: NCI-H460 lung
NCI-H522 lung = system: NCI-H522 lung
NCI/ADR-RES ovarian = system: NCI/ADR-RES ovarian
OVCAR-3 ovarian = system: OVCAR-3 ovarian
OVCAR-4 ovarian = system: OVCAR-4 ovarian
OVCAR-5 ovarian = system: OVCAR-5 ovarian
OVCAR-8 ovarian = system: OVCAR-8 ovarian
P388 leukemia = system: P388 leukemia
P388/ADR leukemia = system: P388/ADR leukemia
PC-3 prostate = system: PC-3 prostate
RPMI-8226 leukemia = system: RPMI-8226 leukemia
RXF 393 renal = system: RXF 393 renal
SF-268 CNS = system: SF-268 CNS
SF-295 CNS = system: SF-295 CNS
SF-539 CNS = system: SF-539 CNS
SK-MEL-2 melanoma = system: SK-MEL-2 melanoma
SK-MEL-28 melanoma = system: SK-MEL-28 melanoma
SK-MEL-5 melanoma = system: SK-MEL-5 melanoma
SK-OV-3 ovarian = system: SK-OV-3 ovarian
SN12C renal = system: SN12C renal
SN12K1 renal = system: SN12K1 renal
SNB-19 CNS = system: SNB-19 CNS
SNB-75 CNS = system: SNB-75 CNS
SNB-78 CNS = system: SNB-78 CNS
SW-620 colon = system: SW-620 colon
T-47D breast = system: T-47D breast
TK-10 renal = system: TK-10 renal
U251 CNS = system: U251 CNS
UACC-257 melanoma = system: UACC-257 melanoma
UACC-62 melanoma = system: UACC-62 melanoma
UO-31 renal = system: UO-31 renal

Nc1ccn(C2OC(COC(=O)C34CC5CC(CC(C5)C3)C4)C(O)C2O)c(=O)n1 (configuration not stated)
TGI (786-0 renal): > 100 µM | TGI (A498 renal): > 100 µM | TGI (A549 NSCLC): > 100 µM | TGI (ACHN renal): > 100 µM | TGI (BT-549 breast): > 100 µM | TGI (CAKI-1 renal): > 100 µM | TGI (CCRF-CEM leukemia): 1.87 µM | TGI (COLO 205 colon): > 100 µM | TGI (DLD-1 colon): > 100 µM | TGI (DMS 114 small cell lung): > 100 µM | TGI (DMS 273 small cell lung): > 100 µM | TGI (DU-145 prostate): > 100 µM | TGI (EKVX NSCLC): > 100 µM | TGI (HCC-2998 colon): > 100 µM | TGI (HCT-116 colon): > 100 µM | TGI (HCT-15 colon): > 100 µM | TGI (HL-60(TB) leukemia): > 34.1 µM | TGI (HOP-18 NSCLC): > 100 µM | TGI (HOP-92 NSCLC): > 100 µM | TGI (HS 578T breast): > 100 µM | TGI (HT29 colon): > 100 µM | TGI (IGROV1 ovarian): > 100 µM | TGI (K-562 leukemia): > 100 µM | TGI (KM12 colon): > 100 µM | TGI (KM20L2 colon): > 100 µM | TGI (LOX IMVI melanoma): > 100 µM | TGI (M14 melanoma): > 100 µM | TGI (M19-MEL melanoma): > 100 µM | TGI (MALME-3M melanoma): > 100 µM | TGI (MCF7 breast): > 100 µM | TGI (MDA-MB-231 breast): > 100 µM | TGI (MDA-MB-435): > 100 µM | TGI (MDA-N): > 100 µM | TGI (MOLT-4 leukemia): > 100 µM | TGI (NCI-H226 lung): > 100 µM | TGI (NCI-H23 lung): > 100 µM | TGI (NCI-H460 lung): > 40.8 µM | TGI (NCI-H522 lung): > 100 µM | TGI (NCI/ADR-RES ovarian): > 100 µM | TGI (OVCAR-3 ovarian): > 100 µM | TGI (OVCAR-4 ovarian): > 100 µM | TGI (OVCAR-5 ovarian): > 100 µM | TGI (OVCAR-8 ovarian): > 100 µM | TGI (P388 leukemia): > 100 µM | TGI (P388/ADR leukemia): > 100 µM | TGI (PC-3 prostate): > 100 µM | TGI (RPMI-8226 leukemia): > 100 µM | TGI (RXF 393 renal): > 100 µM | TGI (SF-268 CNS): > 100 µM | TGI (SF-295 CNS): > 100 µM | TGI (SF-539 CNS): > 100 µM | TGI (SK-MEL-2 melanoma): > 100 µM | TGI (SK-MEL-28 melanoma): > 100 µM | TGI (SK-MEL-5 melanoma): > 100 µM | TGI (SK-OV-3 ovarian): > 100 µM | TGI (SN12C renal): > 100 µM | TGI (SN12K1 renal): > 100 µM | TGI (SNB-19 CNS): > 100 µM | TGI (SNB-75 CNS): > 100 µM | TGI (SNB-78 CNS): > 100 µM | TGI (SW-620 colon): > 100 µM | TGI (T-47D breast): > 100 µM | TGI (TK-10 renal): > 100 µM | TGI (U251 CNS): > 100 µM | TGI (UACC-257 melanoma): > 100 µM | TGI (UACC-62 melanoma): > 100 µM | TGI (UO-31 renal): > 100 µM
